Results published in patent US8575197B2, “Pyrolinone derivative and pharmaceutical composition comprising the same” (Shionogi & Co., Ltd., priority 2008, dated 2013).

What follows are compounds tested against human P2X3 receptor (Homo sapiens (Human), UniProt P56373) (assay: P2X3 receptor inhibition, ATP-evoked Fluo-3 calcium fluorescence (FDSS 3000)). Conditions: C6BU-1 cell transfected with human P2X3 receptor gene; ATP-evoked Fluo-3 fluorescence.
Assay type: cell-based
Summary of the method: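 C6BU-1 cells stably transfected with human P2X3, loaded with 4 μM Fluo-3-AM for 1 h at 37 °C in HEPES buffer pH 7.5 with probenecid. Compound added 5 min before 40 nM ATP solution; fluorescence followed 3 min. IC50 from ratio of peak post-ATP to baseline fluorescence.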

Chain of human P2X3 receptor (P56373 whole entry): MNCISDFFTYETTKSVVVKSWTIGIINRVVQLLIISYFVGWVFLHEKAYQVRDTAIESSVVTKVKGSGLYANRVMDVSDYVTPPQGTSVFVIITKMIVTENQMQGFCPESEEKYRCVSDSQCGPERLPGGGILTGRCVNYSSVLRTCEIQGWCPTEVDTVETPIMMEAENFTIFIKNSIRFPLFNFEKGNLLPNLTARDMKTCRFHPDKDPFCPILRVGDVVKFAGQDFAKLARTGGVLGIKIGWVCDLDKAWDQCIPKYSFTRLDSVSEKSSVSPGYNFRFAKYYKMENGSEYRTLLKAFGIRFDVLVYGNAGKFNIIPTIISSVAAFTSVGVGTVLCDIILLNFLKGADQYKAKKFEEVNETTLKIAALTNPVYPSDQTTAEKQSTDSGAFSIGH

SMILES | IC50
COCc1ccccc1C1C(C(=O)C(C)C)=C(O)C(=O)N1c1ccc(-c2ccoc2)cc1 (stereo not drawn) [Compound I-204] | 43 nM
COc1ccccc1C1c2c(C(C)(C)CO)n[nH]c2C(=O)N1c1ccc(N(C)C)cc1 (stereo not drawn) [II-011] | 319 nM
COCc1ccccc1C1C(C(=O)C(C)C)=C(O)C(=O)N1c1ccc(-c2ccsc2)cc1 (stereo not drawn) [Compound I-186] | 13 nM
CNC(=O)COc1ncccc1C1c2c(C(C)C)n[nH]c2C(=O)N1c1ccc(-c2ccsc2)cc1 (stereo not drawn) [II-053] | 35 nM
COc1ccccc1C1c2c(C(C)C)n[nH]c2C(=O)N1c1ccc(-c2ccsc2)c(N(C)C)c1 (stereo not drawn) [II-244] | 144 nM
CC(C)c1n[nH]c2c1C(c1ccccc1CC(=O)O)N(c1ccc(-c3ccsc3)cc1)C2=O (stereo not drawn) [II-094] | 65 nM
COc1ncccc1C1c2c(C(C)(C)C)n[nH]c2C(=O)N1c1ccc(C2=NCCS2)cc1 (stereo not drawn) [II-192] | 222 nM
Cc1nc(-c2ccc(N3C(=O)C(O)=C(C(=O)c4cc[nH]c4)C3C3CCCCC3)cc2)no1 (stereo not drawn) [Compound I-555] | 579 nM
CCNC(=O)c1ncccc1C1C(C(=O)CC(C)C)=C(O)C(=O)N1c1ccc(-c2ccc(C)s2)cc1 (stereo not drawn) [Compound I-530] | 237 nM
Cc1ccc(-c2ccc(N3C(=O)C(O)=C(C(=O)CC(C)C)C3c3ccccc3OC(F)F)cc2)o1 (stereo not drawn) [Compound I-361] | 48 nM
COc1ccccc1C1c2c(C(C)(C)C)n[nH]c2C(=O)N1c1ccc(C)cc1 (stereo not drawn) [II-196] | 783 nM
COc1ccccc1C1C(C(=O)CC(C)C)=C(O)C(=O)N1c1ccc(-c2ccsc2)cc1 (stereo not drawn) [Compound I-239] | 35 nM
CC(C)c1n[nH]c2c1C(c1ccccc1OCC(=O)O)N(c1ccc(-c3ccsc3)cc1)C2=O (stereo not drawn) [II-047] | 11 nM
COCc1ccccc1C1C(C(=O)CC(C)C)=C(O)C(=O)N1c1ccc(C2=NCCS2)cc1 (stereo not drawn) [Compound I-414] | 268 nM
CC(C)CC(=O)C1=C(O)C(=O)N(c2ccc(-c3ccoc3)cc2)C1c1ccccc1C(=O)N(C)C (stereo not drawn) [Compound I-430] | 153 nM
CC(C)CC(=O)C1=C(O)C(=O)N(c2ccc(-c3ccsc3)cc2)C1c1ccccc1C(=O)N(C)C (stereo not drawn) [Compound I-405] | 31 nM
COCCOc1ccccc1C1c2c(C(C)(C)C)n[nH]c2C(=O)N1c1ccc(-c2ccoc2)cc1 (stereo not drawn) [II-125] | 10 nM
Cc1nc(-c2ccc(N3C(=O)C(O)=C(C(=O)C(C)C)C3c3ccccc3OC3CCCC3)cc2)no1 (stereo not drawn) [Compound I-503] | 17 nM
CC(C)(C)c1n[nH]c2c1C(c1ccccc1OCCO)N(c1ccc(-c3ccon3)cc1)C2=O (stereo not drawn) [II-100] | 31 nM
COc1ccccc1C1c2c(C(C)(C)CO)n[nH]c2C(=O)N1c1ccc(SC)cc1 (stereo not drawn) [II-009] | 54 nM
COCc1ccccc1[C@H]1C(C(=O)C(C)C)=C(O)C(=O)N1c1ccc(-c2ccsc2)cc1 [Compound I-254] | 511 nM
Cc1nc(-c2ccc(N3C(=O)C(O)=C(C(=O)C(C)C)C3c3ccccc3OCCO)cc2)no1 (stereo not drawn) [Compound I-277] | 342 nM
COc1ccc(C(=O)C2=C(O)C(=O)N(c3ccc(-c4ccco4)cc3)C2C2CCCCC2)cc1 (stereo not drawn) [Compound I-015] | 12 nM
COc1ncccc1C1c2c(C(C)(C)C)n[nH]c2C(=O)N1c1ccc(-c2ccoc2)nc1 (stereo not drawn) [II-269] | 363 nM
COCc1ncccc1C1c2c(C(C)C)n[nH]c2C(=O)N1c1ccc(-c2ccsc2)cc1 (stereo not drawn) [II-133] | 116 nM
CC(C)OCc1ccccc1C1C(C(=O)C(C)C)=C(O)C(=O)N1c1ccc(-c2ccon2)cc1 (stereo not drawn) [Compound I-540] | 496 nM
COc1ccc(F)cc1C1C(C(=O)C(C)C)=C(O)C(=O)N1c1ccc(-c2csc(C)c2)cc1 (stereo not drawn) [Compound I-453] | 41 nM
CC(C)(CO)c1n[nH]c2c1C(c1ccccn1)N(c1ccc(-c3ccsc3)cc1)C2=O (stereo not drawn) [II-234] | 130 nM
CC(C)(C)c1n[nH]c2c1C(c1ccccc1OCC#N)N(c1ccc(-c3ccsc3)cc1)C2=O (stereo not drawn) [II-173] | 4 nM
CC(C)CC(=O)C1=C(O)C(=O)N(c2ccc(-c3ccsc3)cc2)C1c1ccccc1OC(F)(F)F (stereo not drawn) [Compound I-330] | 70 nM
